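Each compound was tested at five concentrations against cells in 96-well plates for 48 hours. GI50 is the concentration that inhibits growth by half.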 Active and inactive are the calls of the source. Cut-off read from the data, not from the text of the source: active = GI50 up to about 1.1 µM and inactive = higher.
What was measured:
Assay in all cases: DTP human tumour cell line panel, 48 h
HT-29 = test system: HT-29
KM12 = test system: KM12
LOX IMVI = test system: LOX IMVI
SK-MEL-28 = test system: SK-MEL-28
RPMI-8226 = test system: RPMI-8226
DMS-273 = test system: DMS-273
HOP-62 = test system: HOP-62
EKVX = test system: EKVX
UACC-257 = test system: UACC-257
OVCAR-4 = test system: OVCAR-4
DMS-114 = test system: DMS-114
NCI-H23 = test system: NCI-H23
SK-MEL-5 = test system: SK-MEL-5
UACC-62 = test system: UACC-62
OVCAR-3 = test system: OVCAR-3
OVCAR-5 = test system: OVCAR-5
OVCAR-8 = test system: OVCAR-8
RXF 393 = test system: RXF 393
A549 = test system: A549
K562 = test system: K562
SW-620 = test system: SW-620
U-251 = test system: U-251
XF498 = test system: XF498
SNB-78 = test system: SNB-78
SNB-75 = test system: SNB-75
COLO 205 = test system: COLO 205
TK-10 = test system: TK-10
HL-60 = test system: HL-60
LXFL 529 = test system: LXFL 529
HCT-116 = test system: HCT-116
DLD-1 = test system: DLD-1
MOLT-4 = test system: MOLT-4
SF-539 = test system: SF-539
M19-MEL = test system: M19-MEL
ACHN = test system: ACHN
NCI-H460 = test system: NCI-H460
CAKI-1 = test system: CAKI-1
M14 = test system: M14
Malme-3M = test system: Malme-3M
786-0 = test system: 786-0
HCT-15 = test system: HCT-15
SNB-19 = test system: SNB-19
SF-295 = test system: SF-295
HOP-18 = test system: HOP-18
A498 = test system: A498
NCI-H226 = test system: NCI-H226
SR = test system: SR
KM-20L2 = test system: KM-20L2
HOP-92 = test system: HOP-92
SF-268 = test system: SF-268
UO-31 = test system: UO-31
CCRF-CEM = test system: CCRF-CEM
SK-MEL-2 = test system: SK-MEL-2
SN12C = test system: SN12C
IGROV-1 = test system: IGROV-1
MCF7 = test system: MCF7
SK-OV-3 = test system: SK-OV-3
BT-549 = test system: BT-549
NCI-H522 = test system: NCI-H522
DU-145 = test system: DU-145
MDA-MB-231 = test system: MDA-MB-231
T47D = test system: T47D
MDA-MB-435 = test system: MDA-MB-435
HCC 2998 = test system: HCC 2998
Hs-578T = test system: Hs-578T

CC(=O)OC1COC(N2C(=O)C(=O)c3c(C)cc(Cl)nc32)C(OC(C)=O)C1OC(C)=O (stereo not given)
GI50 (HT-29): > 100 µM (inactive)
GI50 (KM12): > 100 µM (inactive)
GI50 (LOX IMVI): > 100 µM (inactive)
GI50 (SK-MEL-28): > 100 µM (inactive)
GI50 (RPMI-8226): > 100 µM (inactive)
GI50 (DMS-273): > 100 µM (inactive)
GI50 (HOP-62): > 100 µM (inactive)
GI50 (EKVX): > 100 µM (inactive)
GI50 (UACC-257): > 100 µM (inactive)
GI50 (OVCAR-4): > 100 µM (inactive)
GI50 (DMS-114): > 100 µM (inactive)
GI50 (NCI-H23): > 100 µM (inactive)
GI50 (SK-MEL-5): > 100 µM (inactive)
GI50 (UACC-62): > 100 µM (inactive)
GI50 (OVCAR-3): > 100 µM (inactive)
GI50 (OVCAR-5): > 100 µM (inactive)
GI50 (OVCAR-8): > 100 µM (inactive)
GI50 (RXF 393): > 100 µM (inactive)
GI50 (A549): > 100 µM (inactive)
GI50 (K562): > 100 µM (inactive)
GI50 (SW-620): > 100 µM (inactive)
GI50 (U-251): > 100 µM (inactive)
GI50 (XF498): > 100 µM (inactive)
GI50 (SNB-78): > 100 µM (inactive)
GI50 (SNB-75): > 100 µM (inactive)
GI50 (COLO 205): > 100 µM (inactive)
GI50 (TK-10): > 100 µM (inactive)
GI50 (HL-60): > 100 µM (inactive)
GI50 (LXFL 529): > 100 µM (inactive)
GI50 (HCT-116): > 100 µM (inactive)
GI50 (DLD-1): > 100 µM (inactive)
GI50 (MOLT-4): > 100 µM (inactive)
GI50 (SF-539): > 100 µM (inactive)
GI50 (M19-MEL): > 100 µM (inactive)
GI50 (ACHN): > 100 µM (inactive)
GI50 (NCI-H460): > 100 µM (inactive)
GI50 (CAKI-1): > 100 µM (inactive)
GI50 (M14): > 100 µM (inactive)
GI50 (Malme-3M): > 100 µM (inactive)
GI50 (786-0): > 100 µM (inactive)
GI50 (HCT-15): > 100 µM
GI50 (SNB-19): > 100 µM (inactive)
GI50 (SF-295): > 100 µM (inactive)
GI50 (HOP-18): > 100 µM (inactive)
GI50 (A498): > 100 µM (inactive)
GI50 (NCI-H226): > 100 µM (inactive)
GI50 (SR): 83.6 µM (inactive)
GI50 (KM-20L2): > 100 µM (inactive)
GI50 (HOP-92): > 100 µM (inactive)
GI50 (SF-268): > 100 µM (inactive)
GI50 (UO-31): > 100 µM (inactive)
GI50 (CCRF-CEM): > 100 µM (inactive)
GI50 (SK-MEL-2): > 100 µM (inactive)
GI50 (SN12C): > 100 µM (inactive)
GI50 (IGROV-1): > 100 µM (inactive)

COc1ccc2c(c1)C=C([N+](=O)[O-])C(C1OC(C)(C)OC1C1COC(C)(C)O1)O2 (stereo not given)
GI50 (HT-29): 1.97 µM (inactive)
GI50 (KM12): 2 µM (inactive)
GI50 (LOX IMVI): 1.49 µM (inactive)
GI50 (SK-MEL-28): 1.74 µM (inactive)
GI50 (RPMI-8226): 1.67 µM (inactive)
GI50 (DMS-273): 2.9 µM (inactive)
GI50 (MCF7): 2.54 µM (inactive)
GI50 (HOP-62): 20 µM (inactive)
GI50 (EKVX): 13.8 µM (inactive)
GI50 (UACC-257): 2.77 µM (inactive)
GI50 (OVCAR-4): 8.17 µM (inactive)
GI50 (DMS-114): 2.88 µM (inactive)
GI50 (SK-OV-3): 11 µM (inactive)
GI50 (NCI-H23): 11.6 µM (inactive)
GI50 (SK-MEL-5): 2.82 µM (inactive)
GI50 (UACC-62): 1.82 µM (inactive)
GI50 (BT-549): 2.74 µM (inactive)
GI50 (OVCAR-3): 8.69 µM (inactive)
GI50 (OVCAR-5): 8.04 µM (inactive)
GI50 (OVCAR-8): 2.85 µM (inactive)
GI50 (RXF 393): 1.98 µM (inactive)
GI50 (A549): 18 µM (inactive)
GI50 (K562): 1.44 µM (inactive)
GI50 (NCI-H522): 0.731 µM (active)
GI50 (SW-620): 2.26 µM (inactive)
GI50 (U-251): 3.01 µM (inactive)
GI50 (XF498): 11 µM (inactive)
GI50 (SNB-78): 2.79 µM (inactive)
GI50 (SNB-75): 14.5 µM (inactive)
GI50 (COLO 205): 10.8 µM (inactive)
GI50 (TK-10): 18.4 µM (inactive)
GI50 (HL-60): 1.86 µM (inactive)
GI50 (DU-145): 16 µM (inactive)
GI50 (LXFL 529): 3.81 µM (inactive)
GI50 (HCT-116): 1.79 µM (inactive)
GI50 (MDA-MB-231): 2.36 µM (inactive)
GI50 (T47D): 12 µM (inactive)
GI50 (DLD-1): 1.51 µM (inactive)
GI50 (MDA-MB-435): 3.06 µM (inactive)
GI50 (MOLT-4): 1.79 µM (inactive)
GI50 (SF-539): 5.66 µM (inactive)
GI50 (M19-MEL): 1.63 µM (inactive)
GI50 (ACHN): 2.4 µM (inactive)
GI50 (NCI-H460): 3.64 µM (inactive)
GI50 (CAKI-1): 4.51 µM (inactive)
GI50 (M14): 2.07 µM (inactive)
GI50 (Malme-3M): 2.31 µM (inactive)
GI50 (786-0): 12.8 µM (inactive)
GI50 (HCT-15): 1.95 µM
GI50 (SNB-19): 11.9 µM (inactive)
GI50 (SF-295): 7.89 µM (inactive)
GI50 (HOP-18): 24.7 µM (inactive)
GI50 (A498): 18 µM (inactive)
GI50 (NCI-H226): 14.6 µM (inactive)
GI50 (HCC 2998): 13.3 µM (inactive)
GI50 (SR): 1.55 µM (inactive)
GI50 (KM-20L2): 5.08 µM (inactive)
GI50 (HOP-92): 16.1 µM (inactive)
GI50 (SF-268): 3.5 µM (inactive)
GI50 (UO-31): 13.1 µM (inactive)
GI50 (CCRF-CEM): 0.386 µM (active)
GI50 (SK-MEL-2): 1.87 µM (inactive)
GI50 (SN12C): 4.91 µM (inactive)
GI50 (Hs-578T): 4.18 µM (inactive)
GI50 (IGROV-1): 14.6 µM (inactive)

From ChEMBL document CHEMBL1201862, “PubChem BioAssay data set” (2004)
